According to the supplement of paper PMC11061612:

What was measured:
[1] = system: 769-P (Kidney Carcinoma); assay: Bliss excess, mean over the matrix (fraction); higher = more synergy
Method in brief: (§1)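 Cell lines in DMEM/F12 or RPMI with 10% FBS were plated in 1536-well plates, held 24 hours at 37°C, 5% CO2, then given two-drug dose matrices for 72 hours (DMSO typically 0.2%). Viability was read by CellTiter-Glo 2.0 luminescence and scaled as inhibition from 0 (vehicle wells) to 1 (blank wells). Combination Emax is the second-highest inhibition in the matrix; Bliss excess is observed combination effect minus expected EA + EB − EA·EB, EA and EB being single-agent effects.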

[2] = system: EB2 (Burkitt's Lymphoma); assay: as above
Method in brief: as §1

[3] = system: EW-7 (Ewing's Sarcoma); assay: as above
Method in brief: as §1

[4] = system: IM-9 (Non-Cancerous); assay: as above
Method in brief: as §1

[5] = system: JHH-2 (Hepatocellular Carcinoma); assay: as above
Method in brief: as §1

[6] = system: KYSE-220 (Esophageal Squamous Cell Carcinoma); assay: as above
Method in brief: as §1

[7] = system: NCI-H1703 (Squamous Cell Lung Carcinoma); assay: as above
Method in brief: as §1

[8] = system: A204 (Rhabdomyosarcoma); assay: combination Emax (second highest fraction inhibited in the dose matrix, 72 h); higher = more inhibition; extreme values may be limits of the assay
Method in brief: as §1

[9] = system: AU565 (Breast Carcinoma); assay: as above
Method in brief: as §1

[10] = system: CA46 (Burkitt's Lymphoma); assay: as above
Method in brief: as §1

[11] = system: CAL-27 (Oral Cavity Carcinoma); assay: as above
Method in brief: as §1

[12] = system: CESS (Acute Myeloid Leukemia); assay: as above
Method in brief: as §1

[13] = system: DU-4475 (Breast Carcinoma); assay: as above
Method in brief: as §1

[14] = system: G-402 (Other Solid Carcinomas); assay: as above
Method in brief: as §1

[15] = system: GA-10 (Burkitt's Lymphoma); assay: as above
Method in brief: as §1

[16] = system: HT55 (Colorectal Carcinoma); assay: as above
Method in brief: as §1

[17] = system: JIMT-1 (Breast Carcinoma); assay: as above
Method in brief: as §1

[18] = system: JVM-2 (B-Cell Non-Hodgkin's Lymphoma); assay: as above
Method in brief: as §1

[19] = system: huH-1 (Hepatocellular Carcinoma); assay: as above
Method in brief: as §1
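Wherever Bliss excess, mean over the matrix is given: after 72 h of two-drug dosing.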

SMILES	Bliss excess [1]	Bliss excess [2]	Bliss excess [3]	Bliss excess [4]	Bliss excess [5]	Bliss excess [6]	Bliss excess [7]	combination Emax [8]	combination Emax [9]	combination Emax [10]	combination Emax [11]	combination Emax [12]	combination Emax [13]	combination Emax [14]	combination Emax [15]	combination Emax [16]	combination Emax [17]	combination Emax [18]	combination Emax [19]
C[C@@H](c1ccc2nccn2c1)n1nnc2ncc(-c3cnn(C)c3)nc21 [Savolitinib] + Cc1c2c(nn1C)CSCc1cc(n(C)n1)CSc1cc(c3ccccc3c1)OCCCc1c(C(=O)O)n(C)c3c-2c(Cl)ccc13 [AZD5991] (first compound max 1 µM, 7x7, partner max 1 µM)	-0.0252	-0.0501	-0.0336	0.0478	-0.0228	-0.025	-0.0063	0.167	1	0.0743	0.494	0.175	0.173	0.409	0.669	0.187	0.213	0.181	0.16
CN(CCO)CC[C@H](CSc1ccccc1)Nc1ccc(S(=O)(=O)NC(=O)c2ccc(N3CCC([C@@H](O)c4ccccc4-c4ccc(Cl)cc4)CC3)cc2)cc1S(=O)(=O)C(F)(F)F [AZD4320] + Nc1ccn([C@@H]2O[C@H](CO)[C@@H](O)C2(F)F)c(=O)n1 [Gemcitabine] (first compound max 1 µM, 7x7, partner max 0.3 µM)	-0.0672	-0.0017	0.0189	0.043	-0.0302	0.0369	-0.0482	–	–	–	–	–	–	–	–	–	–	–	–
N#Cc1cnc(Nc2cc(NC[C@H]3CNCCO3)c(C(F)(F)F)cn2)cn1 [SRA737] + Nc1ccn([C@@H]2O[C@H](CO)[C@@H](O)C2(F)F)c(=O)n1 [Gemcitabine] (first compound max 10 µM, 7x7, partner max 0.3 µM)	-0.0313	-0.025	0.0349	0.0254	-0.0087	-0.0155	-0.012	–	–	–	–	–	–	–	–	–	–	–	–
Cc1nc(Nc2ncc(C(=O)Nc3c(C)cccc3Cl)s2)cc(N2CCN(CCO)CC2)n1 [Dasatinib] + CC(=O)Nc1cccc(-n2c(=O)n(C3CC3)c(=O)c3c(Nc4ccc(I)cc4F)n(C)c(=O)c(C)c32)c1 [Trametinib] (first compound max 2 µM, 7x7, partner max 1 µM)	-0.0331	0.0027	-0.0074	-0.0439	-0.076	-0.0522	-0.0483	0.512	0.123	0.306	0.868	0.527	1	0.846	0.609	0.751	0.779	0.742	0.305
N#Cc1cnc(Nc2cc(NC[C@H]3CNCCO3)c(C(F)(F)F)cn2)cn1 [SRA737] + CCc1c2c(nc3ccc(O)cc13)-c1cc3c(c(=O)n1C2)COC(=O)[C@]3(O)CC [SN-38] (first compound max 10 µM, 7x7, partner max 0.3 µM)	-0.0284	-0.0723	-0.0597	0.0219	0.0131	0.0163	-0.0606	–	–	–	–	–	–	–	–	–	–	–	–
C[C@@H](c1ccc2nccn2c1)n1nnc2ncc(-c3cnn(C)c3)nc21 [Savolitinib] + CC1(C)CCC(CN2CCN(c3ccc(C(=O)NS(=O)(=O)c4ccc(NCC5CCOCC5)c([N+](=O)[O-])c4)c(Oc4cnc5[nH]ccc5c4)c3)CC2)=C(c2ccc(Cl)cc2)C1 [Venetoclax] (first compound max 1 µM, 7x7, partner max 1 µM)	-0.0419	-0.0391	-0.0242	0.0452	-0.0705	-0.0573	-0.015	0.0862	0.168	0.0492	0.0502	0.204	0.146	0.131	0.101	0.0925	0.164	0.141	0.149
CN(CCO)CC[C@H](CSc1ccccc1)Nc1ccc(S(=O)(=O)NC(=O)c2ccc(N3CCC([C@@H](O)c4ccccc4-c4ccc(Cl)cc4)CC3)cc2)cc1S(=O)(=O)C(F)(F)F [AZD4320] + CC(=O)O[C@H]1C(=O)[C@@]2(C)[C@H]([C@H](OC(=O)c3ccccc3)[C@]3(O)C[C@H](OC(=O)[C@H](O)[C@@H](NC(=O)c4ccccc4)c4ccccc4)C(C)=C1C3(C)C)[C@]1(OC(C)=O)CO[C@@H]1C[C@@H]2O [Paclitaxel] (first compound max 1 µM, 7x7, partner max 3 µM)	-0.0444	-0.0306	0.132	0.0239	-0.0037	0.0169	-0.0223	–	–	–	–	–	–	–	–	–	–	–	–
